Data: PubChem BioAssay AID1963840 (Molecular Pharmacology Branch, DTP, NCI, 2024)

System: 695427-040-R-J1-PDC complex spheroid viability
Assay: Anticancer human tumor 695427-040-R-J1-PDC patient-derived colon adenocarcinoma cell line growth inhibition [POLQ]
Conditions: for IC50: curve of first compound; for viability, T/C: stronger effect = lower value
Outline: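 Patient-derived tumour cells were co-cultured with HUVEC and mesenchymal stem cells as multicellular spheroids at 37 °C. They were treated with POLQ inhibitors (novobiocin, ART-558, RP6685) alone or combined with other agents. Top concentrations were at or near clinical Cmax (otherwise 10 microM; SN-38 at 1 microM), decreasing in half-log steps.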

[1] = second compound 0.0316 µM, first compound 0.0316 µM
[2] = second compound 0.0316 µM, first compound 0.1 µM
[3] = second compound 0.0316 µM, first compound 0.316 µM
[4] = second compound 0.0316 µM, first compound 1 µM
[5] = second compound 0.0316 µM, first compound 3.16 µM
[6] = second compound 0.0316 µM, first compound 10 µM
[7] = second compound 0.1 µM, first compound 0.0316 µM
[8] = second compound 0.1 µM, first compound 0.1 µM
[9] = second compound 0.1 µM, first compound 0.316 µM
[10] = second compound 0.1 µM, first compound 1 µM
[11] = second compound 0.1 µM, first compound 3.16 µM
[12] = second compound 0.1 µM, first compound 10 µM
[13] = second compound 0.316 µM, first compound 0.0316 µM
[14] = second compound 0.316 µM, first compound 0.1 µM
[15] = second compound 0.316 µM, first compound 0.316 µM
[16] = second compound 0.316 µM, first compound 1 µM
[17] = second compound 0.316 µM, first compound 3.16 µM
[18] = second compound 0.316 µM, first compound 10 µM
[19] = second compound 1 µM, first compound 0.0316 µM
[20] = second compound 1 µM, first compound 0.1 µM
[21] = second compound 1 µM, first compound 0.316 µM
[22] = second compound 1 µM, first compound 1 µM
[23] = second compound 1 µM, first compound 3.16 µM
[24] = second compound 1 µM, first compound 10 µM
[25] = second compound 3.16 µM, first compound 0.0316 µM
[26] = second compound 3.16 µM, first compound 0.1 µM
[27] = second compound 3.16 µM, first compound 0.316 µM
[28] = second compound 3.16 µM, first compound 1 µM
[29] = second compound 3.16 µM, first compound 3.16 µM
[30] = second compound 3.16 µM, first compound 10 µM
[31] = second compound 10 µM, first compound 0.0316 µM
[32] = second compound 10 µM, first compound 0.1 µM
[33] = second compound 10 µM, first compound 0.316 µM
[34] = second compound 10 µM, first compound 1 µM
[35] = second compound 10 µM, first compound 3.16 µM
[36] = second compound 10 µM, first compound 10 µM
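Further: spheroids exposed to compounds for seven days.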
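Wherever viability, T/C is given: 100% = DMSO vehicle control viability.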

Structure (SMILES): C#Cc1c(F)ccc2cc(O)cc(-c3ncc4c(N5CC6CCC(C5)N6)nc(OCC56CCCN5CC(F)C6)nc4c3F)c12 (stereo unspecified) + Nc1ccc(C#CCN(C(=O)Cc2ncc(C(F)(F)F)cc2C(F)(F)F)c2ccc(F)cc2)nn1
- IC50 (second compound 0.0316 µM): > 10 µM
- IC50 (second compound 0.1 µM): > 10 µM
- IC50 (second compound 0.316 µM): > 10 µM
- IC50 (second compound 1 µM): > 10 µM
- IC50 (second compound 3.16 µM): > 10 µM
- IC50 (second compound 10 µM): > 10 µM
- viability, T/C [1]: 104%
- viability, T/C [2]: 102%
- viability, T/C [3]: 106%
- viability, T/C [4]: 97.9%
- viability, T/C [5]: 102%
- viability, T/C [6]: 88.7%
- viability, T/C [7]: 118%
- viability, T/C [8]: 96.9%
- viability, T/C [9]: 105%
- viability, T/C [10]: 98.9%
- viability, T/C [11]: 96.9%
- viability, T/C [12]: 89.4%
- viability, T/C [13]: 109%
- viability, T/C [14]: 105%
- viability, T/C [15]: 92.3%
- viability, T/C [16]: 101%
- viability, T/C [17]: 99.4%
- viability, T/C [18]: 78.9%
- viability, T/C [19]: 107%
- viability, T/C [20]: 95.5%
- viability, T/C [21]: 97.2%
- viability, T/C [22]: 108%
- viability, T/C [23]: 103%
- viability, T/C [24]: 79.6%
- viability, T/C [25]: 94.5%
- viability, T/C [26]: 94.9%
- viability, T/C [27]: 105%
- viability, T/C [28]: 86.7%
- viability, T/C [29]: 96%
- viability, T/C [30]: 84.6%
- viability, T/C [31]: 92%
- viability, T/C [32]: 104%
- viability, T/C [33]: 86.9%
- viability, T/C [34]: 83.6%
- viability, T/C [35]: 73.7%
- viability, T/C [36]: 69.3%

Structure (SMILES): CC1COCCN1c1cc(C2(O)CC3CCC(C2)O3)c2cnn(-c3ccn[nH]3)c2n1 (stereo unspecified) + Nc1ccc(C#CCN(C(=O)Cc2ncc(C(F)(F)F)cc2C(F)(F)F)c2ccc(F)cc2)nn1
- IC50 (second compound 0.0316 µM): > 10 µM
- IC50 (second compound 0.1 µM): > 10 µM
- IC50 (second compound 0.316 µM): > 10 µM
- IC50 (second compound 1 µM): > 10 µM
- IC50 (second compound 3.16 µM): > 10 µM
- IC50 (second compound 10 µM): > 10 µM
- viability, T/C [1]: 103%
- viability, T/C [2]: 92.9%
- viability, T/C [3]: 83%
- viability, T/C [4]: 78.6%
- viability, T/C [5]: 65.9%
- viability, T/C [6]: 60.5%
- viability, T/C [7]: 111%
- viability, T/C [8]: 96.5%
- viability, T/C [9]: 88%
- viability, T/C [10]: 76.3%
- viability, T/C [11]: 69%
- viability, T/C [12]: 56.3%
- viability, T/C [13]: 99.4%
- viability, T/C [14]: 96.7%
- viability, T/C [15]: 76.7%
- viability, T/C [16]: 72.4%
- viability, T/C [17]: 70.3%
- viability, T/C [18]: 54.5%
- viability, T/C [19]: 106%
- viability, T/C [20]: 95.3%
- viability, T/C [21]: 84%
- viability, T/C [22]: 70.5%
- viability, T/C [23]: 66.4%
- viability, T/C [24]: 49.5%
- viability, T/C [25]: 104%
- viability, T/C [26]: 87%
- viability, T/C [27]: 86.4%
- viability, T/C [28]: 66.6%
- viability, T/C [29]: 62.4%
- viability, T/C [30]: 58.6%
- viability, T/C [31]: 106%
- viability, T/C [32]: 91.2%
- viability, T/C [33]: 78.3%
- viability, T/C [34]: 65.1%
- viability, T/C [35]: 58.9%
- viability, T/C [36]: 56.9%

Structure (SMILES): CCc1cc2c(N3CCc4c(cc(Cn5ccnc5)cc4-c4cn(C)nc4C(F)(F)F)C3=O)cc(C)nc2c(OC)n1 + Nc1ccc(C#CCN(C(=O)Cc2ncc(C(F)(F)F)cc2C(F)(F)F)c2ccc(F)cc2)nn1
- IC50 (second compound 0.0316 µM): > 10 µM
- IC50 (second compound 0.1 µM): > 10 µM
- IC50 (second compound 0.316 µM): > 10 µM
- IC50 (second compound 1 µM): > 10 µM
- IC50 (second compound 3.16 µM): > 10 µM
- IC50 (second compound 10 µM): > 10 µM
- viability, T/C [1]: 102%
- viability, T/C [2]: 106%
- viability, T/C [3]: 107%
- viability, T/C [4]: 108%
- viability, T/C [5]: 113%
- viability, T/C [6]: 108%
- viability, T/C [7]: 120%
- viability, T/C [8]: 103%
- viability, T/C [9]: 103%
- viability, T/C [10]: 101%
- viability, T/C [11]: 112%
- viability, T/C [12]: 102%
- viability, T/C [13]: 102%
- viability, T/C [14]: 98.9%
- viability, T/C [15]: 99.9%
- viability, T/C [16]: 101%
- viability, T/C [17]: 113%
- viability, T/C [18]: 98.8%
- viability, T/C [19]: 112%
- viability, T/C [20]: 95.8%
- viability, T/C [21]: 99.3%
- viability, T/C [22]: 105%
- viability, T/C [23]: 98.5%
- viability, T/C [24]: 98.3%
- viability, T/C [25]: 109%
- viability, T/C [26]: 116%
- viability, T/C [27]: 88.3%
- viability, T/C [28]: 95.3%
- viability, T/C [29]: 103%
- viability, T/C [30]: 108%
- viability, T/C [31]: 107%
- viability, T/C [32]: 94.6%
- viability, T/C [33]: 95.6%
- viability, T/C [34]: 91.8%
- viability, T/C [35]: 98.7%
- viability, T/C [36]: 97.9%
